One may read the IC50 as the point on the concentration scale where inhibition reaches its midpoint.

SMILES strings stand for the structures.

One experiment concerns the target T1, Human ACC1 (Homo sapiens, UniProt Q13085).
T1 construct: made in house; host or cells: SF-9 insect cells (baculovirus, pFAST-BacHTc)
Put plainly: In vitro enzymatic ACC activity assay (malachite green), ACC1. Type of experiment: biochemical. The following applies: recombinant His-tagged enzyme, absorbance at 620 nm. How it is done: (§1) Provided in Example A is an in vitro enzymatic ACC activity assay for activity against ACC. The binding affinity of the test compound to ACC1 or ACC2 is determined by the changes in absorbance (at 620 nm); […]. It should be noted that a variety of other expression systems and hosts are also suitable for the expression of ACC, as would be readily appreciated by one of skill in the art.
Human ACC1 cDNA was amplified from human liver cDNA by polymerase chain reaction using primers; 5′[…]3′ (SEQ ID NO: 1) and 5′[…]3′ (SEQ ID NO: 2). The amplified DNA fragment was digested by restriction enzyme SalI and NotI, and cloned into pFAST-BacHTc (Invitrogen). This plasmid DNA was used for preparation of recombinant vaculovirus with BAC-TO-BAC Baculovirus Expression System (Invitrogen).
SF-9 cells were infected with the vaculovirus and cultured at 27° C. for 3 days. Harvested cells were homogenized in buffer A (25 mM HEPES (pH7.5), 130 mM NaCl, 1 mM EDTA, 25 mM sodium glycerophosphate, 1 mM sodium orthovanadate, 10% glycerol, complete protease inhibitor), and subjected to ultracentrifuge at 185700×g for 50 min at 4° C. ACC1 protein with 6×His-tag at the N-terminal was purified from the supernatant using Ni-NTA Super Flow Gel (QIAGEN). Eluted protein was dialysed against buffer B (50 mM HEPES (pH 7.5), 300 mM NaCl, 10 mM MgCl2, 10 mM tripotassium citrate, 2 mM dithiothreitol) and concentrated using Vivaspin20 ultrafiltration tube (Sartorius).
(§2) Malachite green solution was prepared by mixing 100 mL of solution A (0.12% malachite green in 5NH2SO4), 25 mL of solution B (7.5% ammonium molybdate) and 2 mL of solution C (11% TWEEN-20).
(§3) ACC1 was diluted to 8 μg/mL in reaction buffer (50 mM HEPES pH7.5, 10 mM MgCl2, 10 mM tripotassium citrate, 2 mM DTT, 0.75 mg/mL fatty acid free BSA) and 10 μL diluted enzyme solution was pored into each well of 384-well clear bottom plate. Test compound was diluted in the reaction buffer and 5 μL of the compound solution was added into each well, and the mixture was incubated at 30° C. for 60 minutes. Reaction was initiated by addition of 5 μL substrate solution (50 mM KHCO3, 200 μM ATP, 200 μM acetyl-CoA). After incubation at 30° C. for 20 minutes, reaction was terminated by addition of 5 μL malachite green solution and absorbance at 620 nm was measured.
(§4) Percent activity at each concentration of compound was calculated from the following equation: […]
(§5) Data were subjected to nonlinear regression analysis using GraphPad Prism Software (GraphPad Software Inc.) to obtain IC50 values.

For a further experiment, the target named is T2, Human ACC2 (Homo sapiens, UniProt O00763).
T2 construct: made in house; host or cells: SF-9 insect cells (baculovirus, pFAST-BacHTa)
Nature of the experiment: In vitro enzymatic ACC activity assay (malachite green), ACC2. The format is biochemical. The following applies: recombinant His-tagged enzyme, absorbance at 620 nm. As to the method: as §1
Human ACC2 cDNA except coding region for mitochondria localization sequence was amplified from human skeletal muscle cDNA by polymerase chain reaction using primers; 5′[…]3′ (SEQ ID NO: 3) and 5′[…]3′ (SEQ ID NO: 4). The amplified DNA fragment was digested by SalI and AflII, and cloned into pFAST-BacHTa (Invitrogen). Preparation of recombinant vaculovirus, infection of the virus to SF-9 cells and purification of recombinant ACC2 protein with 6×His-tag at the N-terminal were performed in the same method as described above.
as §2, §3
ACC2 was diluted to 6.4 μg/mL in reaction buffer, and the activity was measured by the same method as described for ACC1.
as §4, §5

T2 sequence (O00763 117-2458 limits assumed): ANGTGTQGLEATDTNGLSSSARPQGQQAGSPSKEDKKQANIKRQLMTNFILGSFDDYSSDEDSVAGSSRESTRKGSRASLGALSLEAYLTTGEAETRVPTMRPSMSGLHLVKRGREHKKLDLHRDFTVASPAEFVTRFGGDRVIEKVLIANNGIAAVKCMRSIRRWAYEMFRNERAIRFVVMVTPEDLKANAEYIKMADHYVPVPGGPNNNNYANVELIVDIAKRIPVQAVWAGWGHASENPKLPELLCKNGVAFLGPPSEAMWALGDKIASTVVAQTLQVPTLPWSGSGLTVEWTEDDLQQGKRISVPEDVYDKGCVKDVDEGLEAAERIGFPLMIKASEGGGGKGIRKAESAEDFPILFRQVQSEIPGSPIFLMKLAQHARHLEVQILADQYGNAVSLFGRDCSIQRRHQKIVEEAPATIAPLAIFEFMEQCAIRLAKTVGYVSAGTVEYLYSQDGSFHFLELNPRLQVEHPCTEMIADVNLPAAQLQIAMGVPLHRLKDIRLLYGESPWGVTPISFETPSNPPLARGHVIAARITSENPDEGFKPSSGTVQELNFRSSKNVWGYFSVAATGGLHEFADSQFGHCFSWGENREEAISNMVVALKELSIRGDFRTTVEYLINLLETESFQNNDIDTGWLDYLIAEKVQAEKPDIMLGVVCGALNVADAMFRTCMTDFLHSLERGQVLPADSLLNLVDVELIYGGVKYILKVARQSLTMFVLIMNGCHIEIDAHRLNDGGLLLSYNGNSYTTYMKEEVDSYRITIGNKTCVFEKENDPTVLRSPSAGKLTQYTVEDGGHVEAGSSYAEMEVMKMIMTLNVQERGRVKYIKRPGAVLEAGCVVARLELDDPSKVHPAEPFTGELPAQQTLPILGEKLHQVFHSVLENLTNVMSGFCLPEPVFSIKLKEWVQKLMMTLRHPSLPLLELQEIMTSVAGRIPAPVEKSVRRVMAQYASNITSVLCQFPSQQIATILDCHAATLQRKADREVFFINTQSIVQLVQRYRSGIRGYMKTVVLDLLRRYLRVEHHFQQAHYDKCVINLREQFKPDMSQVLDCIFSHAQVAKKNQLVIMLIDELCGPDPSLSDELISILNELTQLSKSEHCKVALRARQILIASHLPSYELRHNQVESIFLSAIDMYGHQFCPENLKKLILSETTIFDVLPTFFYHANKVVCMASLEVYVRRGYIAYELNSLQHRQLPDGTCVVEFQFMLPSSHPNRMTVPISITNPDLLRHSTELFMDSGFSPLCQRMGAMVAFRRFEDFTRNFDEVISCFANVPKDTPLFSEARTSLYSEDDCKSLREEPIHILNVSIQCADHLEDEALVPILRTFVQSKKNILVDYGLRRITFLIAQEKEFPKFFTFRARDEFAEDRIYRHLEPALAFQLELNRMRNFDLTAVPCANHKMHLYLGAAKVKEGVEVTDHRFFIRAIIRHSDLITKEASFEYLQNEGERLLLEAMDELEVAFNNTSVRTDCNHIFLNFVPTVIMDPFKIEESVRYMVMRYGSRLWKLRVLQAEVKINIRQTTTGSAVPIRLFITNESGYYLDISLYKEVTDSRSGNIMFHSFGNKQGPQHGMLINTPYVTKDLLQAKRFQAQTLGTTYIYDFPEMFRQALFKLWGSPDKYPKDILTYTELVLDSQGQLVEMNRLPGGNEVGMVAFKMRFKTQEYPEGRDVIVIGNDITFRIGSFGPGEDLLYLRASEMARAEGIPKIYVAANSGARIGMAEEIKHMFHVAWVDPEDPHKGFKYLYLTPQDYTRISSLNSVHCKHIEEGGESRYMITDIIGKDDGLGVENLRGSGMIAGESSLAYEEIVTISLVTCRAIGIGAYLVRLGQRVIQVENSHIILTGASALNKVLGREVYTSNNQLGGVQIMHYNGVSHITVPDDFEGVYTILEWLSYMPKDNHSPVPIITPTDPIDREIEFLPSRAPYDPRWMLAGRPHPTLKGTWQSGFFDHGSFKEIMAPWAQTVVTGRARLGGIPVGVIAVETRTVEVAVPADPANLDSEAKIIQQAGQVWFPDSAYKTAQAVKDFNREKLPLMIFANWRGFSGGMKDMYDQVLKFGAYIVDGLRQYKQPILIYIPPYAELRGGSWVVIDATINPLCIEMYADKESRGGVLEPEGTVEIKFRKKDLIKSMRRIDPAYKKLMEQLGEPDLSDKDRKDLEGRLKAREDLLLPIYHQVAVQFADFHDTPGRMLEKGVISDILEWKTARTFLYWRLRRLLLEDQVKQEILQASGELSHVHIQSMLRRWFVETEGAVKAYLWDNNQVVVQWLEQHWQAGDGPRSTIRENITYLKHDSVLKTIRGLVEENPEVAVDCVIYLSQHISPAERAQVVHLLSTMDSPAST

For `CCNC(=O)Nc1sc2ccccc2c1C(=O)N1CCN(S(=O)(=O)c2ccc(OC)c(NC(C)=O)c2)CC1` [Example 19, N-(5-(4-(2-(3-ethylureido)benzo[b]thiophene-3-carbonyl)piperazin-1-ylsulfonyl)-2-methoxyphenyl)acetamide], the IC50 on Human ACC1 and at Human ACC2 was below 5 µM in each case.
Regarding `CCNC(=O)Nc1sc2ccccc2c1C(=O)N1CCN(S(=O)(=O)c2cccc(-c3ccnc(C)n3)c2)CC1` [Example 12, ethyl-3-(3-(4-(3-(2-methylpyrimidin-4-yl)phenylsulfonyl)piperazine-1-carbonyl)benzo[b]thiophen-2-yl)urea], the 50% inhibitory concentration (IC50) is 5 to 50 µM at Human ACC1 and below 5 µM on Human ACC2.
The matching figures for `CCNC(=O)Nc1sc2ccccc2c1C(=O)N1CCN(S(C)(=O)=O)CC1` [Example 28, ethyl-3-(3-(4-(methylsulfonyl)piperazine-1-carbonyl)benzo[b]thiophen-2-yl)urea]: above 50 µM and above 50 µM.
For `CCNC(=O)Nc1sc2ccccc2c1C(=O)N1CCC([S+]([O-])c2cccc(OC(F)(F)F)c2)CC1` (stereo not shown) [Example 42, ethyl-3-(3-(4-(3-(trifluoromethoxy)phenylsulfinyl)piperidine-1-carbonyl)benzo[b]thiophen-2-yl)urea] the same measures were above 50 µM and 5 to 50 µM.
For `CCNC(=O)Nc1sc2ccccc2c1C(=O)N1CCN(S(=O)(=O)c2cccc(-c3nnc(C)o3)c2)CC1` [Example 11, ethyl-3-(3-(4-(3-(5-methyl-1,3,4-oxadiazol-2-yl)phenylsulfonyl)piperazine-1-carbonyl)benzo[b]thiophen-2-yl)urea] the same measures were 5 to 50 µM and 5 to 50 µM.
For the molecule `CCNC(=O)Nc1sc2ccccc2c1C(=O)N1CCN(S(=O)(=O)c2ccc3[nH]c(=O)[nH]c3c2)CC1` [Example 31, ethyl-3-(3-(4-(2-oxo-2,3-dihydro-1H-benzo[d]imidazol-5-ylsulfonyl)piperazine-1-carbonyl)benzo[b]thiophen-2-yl)urea], the IC50 on Human ACC1 and at Human ACC2 was below 5 µM each time.
On to `CCNC(=O)Nc1sc2ccccc2c1C(=O)N1CCN(S(=O)(=O)c2cccc(C(C)=O)c2)CC1` [Example 20, 1-(3-(4-(3-acetylphenylsulfonyl)piperazine-1-carbonyl)benzo[b]thiophen-2-yl)-3-ethylurea], for which the IC50 at Human ACC1 and on Human ACC2 was below 5 µM each time.
Take `CCNC(=O)Nc1sc2ccccc2c1C(=O)N1CCN(S(=O)(=O)C2CCS(=O)(=O)C2)CC1` (stereo not shown) [Example 17, ethyl-3-(3-(4-(1,1-dioxotetrahydrothiophen-3-ylsulfonyl)piperazine-1-carbonyl)benzo[b]thiophen-2-yl)urea]: the IC50 at Human ACC1 and at Human ACC2 was 5 to 50 µM throughout.
Regarding `CCNC(=O)Nc1sc2ccccc2c1C(=O)N1CCC([S+]([O-])c2cccc(OC)c2)CC1` (stereo not shown) [Example 41, ethyl-3-(3-(4-(3-methoxyphenylsulfinyl)piperidine-1-carbonyl)benzo[b]thiophen-2-yl)urea], the IC50 at Human ACC1 and at Human ACC2 was 5 to 50 µM in each case.
Take `CCNC(=O)Nc1sc2ccccc2c1C(=O)N1CCN(S(=O)(=O)c2cccc(-c3csc(C)n3)c2)CC1` [Example 10, ethyl-3-(3-(4-(3-(2-methylthiazol-4-yl)phenylsulfonyl)piperazine-1-carbonyl)benzo[b]thiophen-2-yl)urea]: the IC50 is above 50 µM on Human ACC1 and 5 to 50 µM at Human ACC2.
For `CCNC(=O)Nc1sc2ccccc2c1C(=O)N1CCN(S(=O)(=O)CCC(=O)N(CC)CC)CC1` [Example 34, N,N-diethyl-3-(4-(2-(3-ethylureido)benzo[b]thiophene-3-carbonyl)piperazin-1-ylsulfonyl)propanamide] the same measures were 5 to 50 µM and 5 to 50 µM.
The matching figures for `CCNC(=O)Nc1sc2ccccc2c1C(=O)N1CCN(S(=O)(=O)c2ccccc2C#N)CC1` [Example 2, 1-(3-(4-(2-cyanophenylsulfonyl)piperazine-1-carbonyl)benzo[b]thiophen-2-yl)-3-ethylurea]: above 50 µM and above 50 µM.
The matching figures for `CCNC(=O)Nc1sc2ccccc2c1C(=O)N1CCN(S(=O)(=O)c2ccc3nsnc3c2)CC1` [Example 6, 1-(3-(4-(benzo[c][1,2,5]thiadiazol-5-ylsulfonyl)piperazine-1-carbonyl)benzo[b]thiophen-2-yl)-3-ethylurea]: above 50 µM and above 50 µM.
Turning to `CCNC(=O)Nc1sc2ccccc2c1C(=O)N1CCC(Sc2cccc(OC(F)(F)F)c2)CC1` [Example 40, ethyl-3-(3-(4-(3-(trifluoromethoxy)phenylthio)piperidine-1-carbonyl)benzo[b]thiophen-2-yl)urea], the IC50 on Human ACC1 was above 50 µM; at Human ACC2 it was 5 to 50 µM.
For `CCNC(=O)Nc1sc2ccccc2c1C(=O)N1CCN(S(=O)(=O)CCC(F)(F)F)CC1` [Example 27, ethyl-3-(3-(4-(3,3,3-trifluoropropylsulfonyl)piperazine-1-carbonyl)benzo[b]thiophen-2-yl)urea] the same measures were above 50 µM and 5 to 50 µM.
The matching figures for `CCNC(=O)Nc1sc2ccccc2c1C(=O)N1CCN(S(=O)(=O)c2ccc3c(c2)OCO3)CC1` [Example 4, 1-(3-(4-(benzo[d][1,3]dioxol-5-ylsulfonyl)piperazine-1-carbonyl)benzo[b]thiophen-2-yl)-3-ethylurea]: above 50 µM and 5 to 50 µM.
The matching figures for `CCNC(=O)Nc1sc2ccccc2c1C(=O)N1CCN(S(=O)(=O)c2cccc(NC(C)=O)c2)CC1` [Example 8, N-(3-(4-(2-(3-ethylureido)benzo[b]thiophene-3-carbonyl)piperazin-1-ylsulfonyl)phenyl)acetamide]: 5 to 50 µM and below 5 µM.
`CCNC(=O)Nc1sc2ccccc2c1C(=O)N1CCN(S(=O)(=O)c2ccc(N3CCCC3=O)cc2)CC1` [Example 22, ethyl-3-(3-(4-(4-(2-oxopyrrolidin-1-yl)phenylsulfonyl)piperazine-1-carbonyl)benzo[b]thiophen-2-yl)urea]: the values for the IC50 on Human ACC1 and at Human ACC2 were above 50 µM and below 5 µM, respectively.
The matching figures for `CCNC(=O)Nc1sc2ccccc2c1C(=O)N1CCN(S(=O)(=O)CC(C)C)CC1` [Example 26, ethyl-3-(3-(4-(isobutylsulfonyl)piperazine-1-carbonyl)benzo[b]thiophen-2-yl)urea]: 5 to 50 µM and 5 to 50 µM.
For `CCNC(=O)Nc1sc2ccccc2c1C(=O)N1CCN(S(=O)(=O)c2ccc3c(c2)OCCCO3)CC1` [Example 18, 1-(3-(4-(3,4-dihydro-2H-benzo[b][1,4]dioxepin-7-ylsulfonyl)piperazine-1-carbonyl)benzo[b]thiophen-2-yl)-3-ethylurea] the same measures were below 5 µM and below 5 µM.
For the molecule `CCNC(=O)Nc1sc2ccccc2c1C(=O)N1CCN(S(=O)(=O)c2cccc([N+](=O)[O-])c2)CC1` [Example 16, ethyl-3-(3-(4-(3-nitrophenylsulfonyl)piperazine-1-carbonyl)benzo[b]thiophen-2-yl)urea], the IC50 on Human ACC1 and on Human ACC2 was above 50 µM each time.
Turning to `CCNC(=O)Nc1sc2ccccc2c1C(=O)N1CCN(S(=O)(=O)c2cccc(OC)c2)CC1` [Example 7, ethyl-3-(3-(4-(3-methoxyphenylsulfonyl)piperazine-1-carbonyl)benzo[b]thiophen-2-yl)urea], the results for the IC50 at Human ACC1 and at Human ACC2 were above 50 µM and below 5 µM, respectively.
Regarding `CCNC(=O)Nc1sc2ccccc2c1C(=O)N1CCN(S(=O)(=O)c2cccc(S(C)(=O)=O)c2)CC1` [Example 5, ethyl-3-(3-(4-(3-(methylsulfonyl)phenylsulfonyl)piperazine-1-carbonyl)benzo[b]thiophen-2-yl)urea], the IC50 at Human ACC1 and on Human ACC2 was 5 to 50 µM each time.

The values above are taken from US20090005375A1, “ACETYL COENZYME A CARBOXYLASE INHIBITORS” (priority 2007, published 2009).
